Drawing on PubChem BioAssay AID328 (DTP/NCI, 2004), this text covers T/C for 21 compounds.

For this assay, the system named is BDF1 mice, P388 leukemia ip, median survival T/C. Nature of the assay: NCI In Vivo Anticancer Drug Screen. Data for tumor model P388 Leukemia (intraperitoneal) in B6D2F1 (BDF1) mice. The note with it: endpoint: median survival time, higher = longer survival. The procedure, abridged: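 Steps: implant the tumour, treat one group with compound and another with vehicle, record survival, then divide treated by control.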

The mark [1] stands for this setting: dose: 25.0 mg/kg/injection, schedule: Q01DX009 (ip), vehicle: Klucel (hydroxypropylcellulose) (HPC).
The mark [2] stands for this setting: dose: 50.0 mg/kg/injection, schedule: Q01DX009 (ip), vehicle: Klucel (hydroxypropylcellulose) (HPC).
Setting [3] is: dose: 100.0 mg/kg/injection, schedule: Q01DX009 (ip), vehicle: Klucel (hydroxypropylcellulose) (HPC).
Where [4] appears, read: dose: 100.0 mg/kg/injection, schedule: Q04DX003 (ip), vehicle: saline with Tween-80.
Where [5] appears, read: dose: 200.0 mg/kg/injection, schedule: Q04DX003 (ip), vehicle: saline with Tween-80.
Where [6] appears, read: dose: 400.0 mg/kg/injection, schedule: Q04DX003 (ip), vehicle: saline with Tween-80.
The mark [7] stands for this setting: dose: 12.5 mg/kg/injection, schedule: Q01DX009 (ip), vehicle: saline with Tween-80.
Where [8] appears, read: dose: 25.0 mg/kg/injection, schedule: Q01DX009 (ip), vehicle: saline with Tween-80.
[9] abbreviates: dose: 50.0 mg/kg/injection, schedule: Q04DX003 (ip), vehicle: saline.
[10] abbreviates: dose: 100.0 mg/kg/injection, schedule: Q04DX003 (ip), vehicle: saline.
The mark [11] stands for this setting: dose: 200.0 mg/kg/injection, schedule: Q04DX003 (ip), vehicle: saline.
Setting [12] is: dose: 400.0 mg/kg/injection, schedule: Q04DX003 (ip), vehicle: saline.
Setting [13] is: dose: 50.0 mg/kg/injection, schedule: Q01DX009 (ip), vehicle: saline.
[14] abbreviates: dose: 100.0 mg/kg/injection, schedule: Q01DX009 (ip), vehicle: saline with Tween-80.

Several values for one entry are separate records, joined by “and”; a condition that tells them apart may be missing. Identical values can stand only once. Inconclusive results and toxic doses are left out.

With `CC(=O)NN(c1ccc([N+](=O)[O-])cc1)c1ccc([N+](=O)[O-])cc1`, the T/C is 109 % of control under setting [1], 109 % of control under setting [2] and 100 % of control under setting [3].
Turning to `CC#CC#C/C=C1\OC2(CCCCO2)C(OC(C)=O)C1OC(C)=O` (stereo unspecified), the T/C reads like this: (dose: 10.0 mg/kg/injection, schedule: Q01DX009 (ip), vehicle: Klucel (hydroxypropylcellulose) (HPC)) 98 % of control; (dose: 20.0 mg/kg/injection, schedule: Q01DX009 (ip), vehicle: Klucel (hydroxypropylcellulose) (HPC)) 98 % of control; (dose: 40.0 mg/kg/injection, schedule: Q01DX009 (ip), vehicle: Klucel (hydroxypropylcellulose) (HPC)) 115 % of control.
As to `Cc1nc2ccccc2c(=O)n1C(C)(C)CCl`, the T/C under setting [4] was 100 % of control and the T/C under setting [5] is 109 % of control.
With `CCCCCCCCCCCCCCCCCS(=O)S(=O)O` (stereo unspecified), the T/C (dose: 89.0 mg/kg/injection, schedule: Q01DX009 (ip), vehicle: saline with Tween-80) is 116 % of control; the T/C under setting [3] was 116 % of control; the T/C (dose: 132.0 mg/kg/injection, schedule: Q01DX009 (ip), vehicle: Klucel (hydroxypropylcellulose) (HPC)) is 109 % of control; the T/C (dose: 200.0 mg/kg/injection, schedule: Q01DX009 (ip), vehicle: Klucel (hydroxypropylcellulose) (HPC)) is 119 % of control; the T/C (dose: 300.0 mg/kg/injection, schedule: Q01DX009 (ip), vehicle: Klucel (hydroxypropylcellulose) (HPC)) is 122 % of control.
As to `COc1ccc(C(O)c2ccccn2)cc1` (stereo unspecified), the T/C was 100 % of control under setting [4], 110 % of control under setting [5] and 105 % of control under setting [6].
`CSc1nc2[nH]cnc(=S)c2[nH]1`: the T/C is, setting by setting: (dose: 6.25 mg/kg/injection, schedule: Q01DX009 (ip), vehicle: saline with Tween-80) 104 % of control; under setting [7], 104 % of control; under setting [8], 100 % of control.
For `NNc1nc2c(N)ncnc2n1C1OC(CO)C(O)C1O` (stereo unspecified), the T/C is, setting by setting: under setting [9], 108 % of control; under setting [10], 115 % of control; under setting [11], 101 % of control; under setting [12], 116 % of control.
Take `O=C1C(Br)=C(Br)C(=O)C1(Br)Br`: the T/C was 100 % of control (dose: 8.25 mg/kg/injection, schedule: Q01DX009 (ip), vehicle: saline with Tween-80); 109 % of control under setting [7]; 113 % of control (dose: 18.75 mg/kg/injection, schedule: Q01DX009 (ip), vehicle: saline with Tween-80).
`ClCCn1cnc2c(SCc3ccccc3)ncnc21`: the T/C is 100 % of control under setting [4], 100 % of control under setting [5] and 100 % of control under setting [6].
As for `COc1ccc2c(C)[n+]3ccc4cc(OC)c(OC)cc4c3cc2c1` (tested in a mixture with another compound), the T/C was 154 % of control (dose: 25.0 mg/kg/injection, schedule: Q04DX003 (ip), vehicle: saline); 186 % of control (dose: 33.0 mg/kg/injection, schedule: Q01DX009 (ip), vehicle: saline); 181 % of control under setting [13]; 154 % of control and 181 % of control under setting [9]; 118 % of control (dose: 75.0 mg/kg/injection, schedule: Q01DX009 (ip), vehicle: saline); 150 % of control under setting [11].
`OCCNCc1ccccc1`: the T/C was 100 % of control (dose: 100.0 mg/kg/injection, schedule: Q04DX003 (ip), vehicle: water) and 113 % of control (dose: 400.0 mg/kg/injection, schedule: Q04DX003 (ip), vehicle: water).
Take `O=c1onc(-c2ccc(Cl)cc2)c2ccccc12`: the T/C is, setting by setting: under setting [8], 105 % of control; (dose: 50.0 mg/kg/injection, schedule: Q01DX009 (ip), vehicle: saline with Tween-80) 94 % of control; under setting [14], 102 % of control.
With `Nc1nc(=S)c2[nH]c(N=Nc3ccc(S(=O)(=O)Nc4ccccn4)cc3)nc2[nH]1`, the T/C was 108 % of control (dose: 12.5 mg/kg/injection, schedule: Q01DX009 (ip), vehicle: Klucel (hydroxypropylcellulose) (HPC)); 91 % of control under setting [1]; 90 % of control under setting [2]; 87 % of control (dose: 50.0 mg/kg/injection, schedule: Q04DX003 (ip), vehicle: Klucel (hydroxypropylcellulose) (HPC)); 116 % of control (dose: 100.0 mg/kg/injection, schedule: Q04DX003 (ip), vehicle: Klucel (hydroxypropylcellulose) (HPC)); 104 % of control (dose: 200.0 mg/kg/injection, schedule: Q04DX003 (ip), vehicle: Klucel (hydroxypropylcellulose) (HPC)).
In the case of `CCOCc1cc([N+](=O)[O-])cc([N+](=O)[O-])c1O`, the T/C reads like this: under setting [7], 109 % of control; under setting [8], 113 % of control.
Consider `CC1CN1P(=O)(N1CC1C)N1CC1C` (stereo unspecified), for which the T/C (dose: 25.0 mg/kg/injection, schedule: Q01DX009 (ip), vehicle: saline) is 100 % of control; the T/C (dose: 33.0 mg/kg/injection, schedule: Q04DX003 (ip), vehicle: saline) was 222 % of control; the T/C under setting [13] is 105 % of control; the T/C under setting [9] was 177 % of control and 186 % of control; the T/C (dose: 75.0 mg/kg/injection, schedule: Q04DX003 (ip), vehicle: saline) is 250 % of control and 116 % of control; the T/C under setting [10] is 236 % of control.
For `C=CCOc1c(C)cc(C(C)(C)c2cc(C)c(OCC=C)c(C)c2)cc1C`, the T/C was 104 % of control (dose: 25.0 mg/kg/injection, schedule: Q01DX001 (ip), vehicle: other); 109 % of control (dose: 50.0 mg/kg/injection, schedule: Q01DX001 (ip), vehicle: other); 95 % of control (dose: 100.0 mg/kg/injection, schedule: Q01DX001 (ip), vehicle: other).
As to `CC(C)c1oc(=O)cc2c1[C@@H](O)[C@H]1OC(=O)[C@@]3(C)[C@@H](O)[C@H]4O[C@H]4[C@@]2(C)[C@@H]13`, the T/C by setting is: (dose: 15.0 mg/kg/injection, schedule: Q04DX003 (ip), vehicle: saline with Tween-80) 115 % of control; (dose: 30.0 mg/kg/injection, schedule: Q01DX001 (ip), vehicle: saline with Tween-80) 104 % of control; (dose: 30.0 mg/kg/injection, schedule: Q04DX003 (ip), vehicle: saline with Tween-80) 97 % of control.
For `CCC(c1ccccc1)C(C(=O)O)C(=O)O` (stereo unspecified), the T/C (dose: 100.0 mg/kg/injection, schedule: Q04DX002 (ip), vehicle: saline with Tween-80) was 110 % of control; the T/C (dose: 200.0 mg/kg/injection, schedule: Q04DX002 (ip), vehicle: saline with Tween-80) was 101 % of control; the T/C (dose: 400.0 mg/kg/injection, schedule: Q04DX002 (ip), vehicle: saline with Tween-80) is 103 % of control.
Regarding `O=C(O)C(/C=N\Nc1ccccc1)=N\Nc1ccccc1`, the T/C is 110 % of control (dose: 37.5 mg/kg/injection, schedule: Q01DX009 (ip), vehicle: saline with Tween-80); 115 % of control (dose: 75.0 mg/kg/injection, schedule: Q01DX009 (ip), vehicle: saline with Tween-80); 118 % of control (dose: 150.0 mg/kg/injection, schedule: Q01DX009 (ip), vehicle: saline with Tween-80).
Turning to `c1nc(SC2CCCC2)c2[nH]cnc2n1`, the T/C was 100 % of control under setting [14] and 116 % of control (dose: 200.0 mg/kg/injection, schedule: Q01DX009 (ip), vehicle: saline with Tween-80).
For the compound `O=C1OC(=O)C2C1C1(Cl)C(Cl)=C(Cl)C2(Cl)C2C(=O)OC(=O)C21` (stereo unspecified), the T/C runs as follows: under setting [10], 91 % of control; under setting [11], 108 % of control; under setting [12], 104 % of control.
